Measurements published in patent publication US11274158B2, “Methods and compositions for treating inflammatory or autoimmune diseases or conditions using calcitonin receptor activators” (Flagship Pioneering Innovations V, Inc., priority 2018, dated 2022).

Tested on: human macrophages
Test: Effect of calcitonin receptor agonism on cytokine (IL6) secretion in human macrophages, bead-based immunoassay
Type: cell-based
Settings: human monocyte-derived macrophages, supernatant
Experimental: CD14+ monocytes were isolated from human PBMCs using negative magnetic bead selection (Stemcell Technologies) on day 0. Cells were cultured with M-CSF to differentiate monocytes to macrophages. On day 6, cells were treated with SUN-B-8155, a non-peptide calcitonin receptor agonist (Sigma-Aldrich), at concentrations 2 μM and 20 μM overnight. Supernatant was collected and bead-based immunoassays (Biolegend) were performed to detect changes in cytokine secretion.
Across multiple donors, secretion of the inflammatory cytokine, IL6, by macrophages was decreased after addition of small molecule agonist to calcitonin receptor, as shown in Table 13 below.

Fold change of IL6 (Normalized to Macs + LPS with no compound treatment) (2 μM overnight): 0.92 | Fold change of IL6 (Normalized to Macs + LPS with no compound treatment) (20 μM overnight): 0.09
SMILES: CC(=Nc1ccccc1N)c1c(C)cc(=O)n(O)c1O [SUN-B-8155]
